The subject of test [1] is autologous cell line transformed with EBV / 11C2 CTL. The test is described as follows: Peptide recognition assay: chromium release, lysis by 11C2 CTL of peptide-incubated autologous EBV-transformed cells. Type of test: cell-based, human. The note with it: for EC50: 11C2 CTL, E/T 31/1, 51Cr-labeled autologous EBV-transformed cells incubated 1 hour with peptide, 4 h release, read-out: maximum half-lysis (peptide concentration); for recognition by 11C2 CTL: peptides carrying the HLA-A*0201 binding motif, 18 peptides assayed. As for the experimental part: 2000 cells transformed with EBV and labeled with ^51Cr were incubated for 1 hour in the presence of the indicated hsp70-2 peptides (SEQ ID NOS. 2, 7, 1, and 8) at multiple concentrations. The 11C2 CTL was then added at an effector/target ratio (E/T) of 31/1. Chromium release was measured 4 hours later. The asterisks indicate the mutated amino acids.
The cytotoxicity assays were carried out using the standard 4-hour chromium release assay, as described above, Angevin et al, (1997). In summary, 2×10^3 51Cr-labeled target cells were incubated for 4 hours at 37° C., with the effector cells at various E/T ratios, in a final volume of 200 μl. With regard to lysis inhibition by the mAbs, the target cells were preincubated for two hours in the presence of saturating concentrations of mAb, before adding the effector cells. At the end of the incubation, 40 μl of supernatant were transferred to Lumaplate 96 solid scintillation plates (Packard Instruments, Meriden, Conn.), were dried overnight and counted in a beta-radioactivity counter (Packard Instruments).
In the screening assay, the peptides used were synthesized by “PepSet technology” (Chiron Technologies, Suresnes, France). For the functional assays, the peptides were synthesized on solid phase using F-moc (temporary NH2-terminal protection), and were purified by preparative HPLC. […] The lyophilized peptides were dissolved in […] in water, and conserved at −20° C. The peptides were used in a chromium release assay. 2000 autologous cells transformed with EBV, and labeled with ^51Cr, were incubated for 1 hour at 37° C. on 96-well plates, with diverse concentrations of peptides, before adding 11C2 CTLs.

The test system of test [2] is CD8+ cells from HLA-A2-positive donors. Description: Elispot-IFNγ assay with CD8+ cells and peptide-loaded T2 cells. Type of test: cell-based, human. As to conditions: interferon gamma secretion, no in vitro culturing or cytokines.
Another test has as its target T1, HLA-A2 (HLA-A*0201) (human).
T1 construct: whole, on cells; also called HLA-A2.1
Description: T2 cell HLA-A2 up-regulation, flow cytometry with mAb MA2.1. The procedure: T2 cells were incubated at 26° C. for 16 hours in serum-free medium, with or without peptide at a concentration of 20 μm. Next, the peptides (SEQ ID NOS. 2, 7, 1, and 8) were again added, and the cells were incubated at 37° C. […] The amino acid sequences of the peptides are represented. The mutated amino acid is represented by an asterisk.
On the technique in general: A flow cytometer gives signals particle by particle.

In the case of “SLFEGIDFYT [SEQ ID NO: 7, wild-type hsp70-2 decapeptide 286-295, reference compound]”, in test [1], the EC50 turned out to be 50 nM and the “recognition by 11C2 CTL” value is “recognizes”.

For the molecule “SLFEGIDIY [SEQ ID NO: 1, mutated hsp70-2 nonapeptide, amino acids 286 to 294, isoleucine at position 293]”, the “induction of human CD8 lymphocytes from healthy HLA-A2+ individuals” value in test [2] is listed as “possible to induce”. For the same molecule, in test [1], the EC50 worked out at 500 nM and the “recognition by 11C2 CTL” value is “recognized”.

Regarding “SLFEGIDIYT [SEQ ID NO: 2, mutated hsp70-2 decapeptide 286-295 carrying the mutant isoleucine residue at position 8]”, the “induction of human CD8 lymphocytes from healthy HLA-A2+ individuals” value in test [2] is “possible to induce”. Moreover, in test [1], the EC50 stood at 0.05 nM and the “recognition by 11C2 CTL” value is “recognized”.

For the molecule “wild-type nonapeptide 286-294: wild-type hsp70-2 nonapeptide, amino acids 286-294 (SLFEGIDFY; listed as Homo sapiens) [reference compound]”, the “recognition by 11C2 CTL” value in test [1] is “not”.

Regarding SLFEGIDFYT (Synthetic peptide) [wild-type hsp70-2 decapeptide 286-295 SLFEGIDFYT], the binding result with HLA-A2 (HLA-A*0201) is “binds”.

B1: mutated hsp70-2 decapeptide 286-295 SLFEGIDIYT (peptide)
peptide: SLFEGIDIYT
notes: Synthetic peptide; carries the tumour mutation (isoleucine at hsp70 position 293, position 8 of the peptide)
As to B1, the binding result in the test with HLA-A2 (HLA-A*0201) was “binds”.

Take SLFEGIDFY (2, 7, 1 and 8) [wild-type hsp70-2 nonapeptide 286-294]: in the test with HLA-A2 (HLA-A*0201), the binding result is recorded as “binds”.

B2: mutated hsp70-2 nonapeptide 286-294 SLFEGIDIY (peptide)
peptide: SLFEGIDIY
notes: Synthetic peptide; isoleucine at hsp70 position 293
As to B2, in the test with HLA-A2 (HLA-A*0201), the binding result is “binds”.

The record behind these values is patent US6855802B1, “Mutated peptide compounds, derived from hsp70, useful in cancer immunotherapy” (Institut Gustave Roussy, priority 1998, dated 2005).
